What was measured:
Format in all cases: biochemical
HDAC6 enzyme = target: T1, HDAC6 enzyme (Homo sapiens, UniProt Q9UBN7); experiment: HDAC1/6 Enzyme Inhibitory Assay (HDAC-Glo I/II Assay kit), HDAC6; conditions: 1 μM test compound; wells without enzyme = 100% inhibition; read-out: HDAC6 inhibitory rate (%) (1 μM)
T1 construct: transducing full length HDAC1 and HDAC6 genes into Sf-9 insect cells; GST; purchased SignalChem; host or cells: Sf-9 insect cells
T1 sequence (Q9UBN7 1-1215): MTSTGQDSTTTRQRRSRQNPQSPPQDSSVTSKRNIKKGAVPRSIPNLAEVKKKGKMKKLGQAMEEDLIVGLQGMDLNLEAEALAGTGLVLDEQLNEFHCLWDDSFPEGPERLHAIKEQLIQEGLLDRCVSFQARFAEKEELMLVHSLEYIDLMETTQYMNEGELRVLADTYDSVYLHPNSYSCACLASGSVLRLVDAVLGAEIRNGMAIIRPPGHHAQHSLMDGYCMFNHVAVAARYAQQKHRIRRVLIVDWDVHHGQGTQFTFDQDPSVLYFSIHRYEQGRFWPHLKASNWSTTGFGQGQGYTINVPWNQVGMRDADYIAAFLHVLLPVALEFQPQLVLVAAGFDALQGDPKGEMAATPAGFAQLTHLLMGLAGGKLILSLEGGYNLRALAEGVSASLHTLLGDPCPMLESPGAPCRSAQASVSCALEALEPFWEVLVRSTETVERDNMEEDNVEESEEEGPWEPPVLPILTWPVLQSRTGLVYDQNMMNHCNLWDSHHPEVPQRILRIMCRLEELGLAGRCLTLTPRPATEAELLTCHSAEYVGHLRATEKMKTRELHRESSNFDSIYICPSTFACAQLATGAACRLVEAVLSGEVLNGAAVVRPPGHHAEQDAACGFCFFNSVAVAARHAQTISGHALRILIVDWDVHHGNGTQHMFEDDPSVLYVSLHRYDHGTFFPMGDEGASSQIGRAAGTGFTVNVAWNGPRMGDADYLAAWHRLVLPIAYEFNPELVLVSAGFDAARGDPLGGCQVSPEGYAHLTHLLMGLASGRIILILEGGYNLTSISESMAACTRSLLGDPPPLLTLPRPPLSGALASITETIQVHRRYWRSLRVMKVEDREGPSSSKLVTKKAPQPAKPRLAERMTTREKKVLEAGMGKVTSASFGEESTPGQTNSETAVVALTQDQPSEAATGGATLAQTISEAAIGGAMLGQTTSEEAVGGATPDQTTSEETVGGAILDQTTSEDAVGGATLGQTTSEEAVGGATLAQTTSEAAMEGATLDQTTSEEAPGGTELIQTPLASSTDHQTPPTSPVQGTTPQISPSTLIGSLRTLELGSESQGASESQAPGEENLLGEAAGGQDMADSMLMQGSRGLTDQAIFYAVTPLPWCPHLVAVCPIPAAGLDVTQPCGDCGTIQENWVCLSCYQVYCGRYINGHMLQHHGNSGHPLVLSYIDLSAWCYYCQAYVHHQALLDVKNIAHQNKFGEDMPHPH
Method in brief: (§1)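 Inhibitory activity derives from HDAC-Glo luminescence, expressed relative to wells lacking enzyme (100% inhibition). Compounds meet full-length GST-purified HDAC1 or HDAC6 for 60 min at room temperature before a 20 min substrate-developer reaction.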

HDAC1 enzyme = target: T2, HDAC1 enzyme (Homo sapiens, UniProt Q13547); experiment: HDAC1/6 Enzyme Inhibitory Assay (HDAC-Glo I/II Assay kit), HDAC1; conditions: 1 μM test compound; wells without enzyme = 100% inhibition; read-out: HDAC1 inhibitory rate (%) (1 μM)
T2 construct: transducing full length HDAC1 and HDAC6 genes into Sf-9 insect cells; GST; purchased SignalChem; host or cells: Sf-9 insect cells
T2 sequence (Q13547 whole entry): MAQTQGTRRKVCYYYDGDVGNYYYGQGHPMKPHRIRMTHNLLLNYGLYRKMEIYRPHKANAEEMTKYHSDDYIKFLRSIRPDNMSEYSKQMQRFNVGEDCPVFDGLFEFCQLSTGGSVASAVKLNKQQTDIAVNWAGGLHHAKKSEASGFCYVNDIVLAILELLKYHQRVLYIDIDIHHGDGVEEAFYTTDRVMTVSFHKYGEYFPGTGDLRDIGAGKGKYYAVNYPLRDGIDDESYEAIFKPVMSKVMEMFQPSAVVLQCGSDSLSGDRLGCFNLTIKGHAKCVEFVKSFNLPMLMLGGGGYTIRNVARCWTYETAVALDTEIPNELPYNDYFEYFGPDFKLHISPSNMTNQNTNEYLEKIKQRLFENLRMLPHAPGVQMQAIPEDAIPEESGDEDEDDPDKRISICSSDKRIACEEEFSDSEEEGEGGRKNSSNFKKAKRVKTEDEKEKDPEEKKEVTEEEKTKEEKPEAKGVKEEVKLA
Method in brief: as §1

HDAC9 enzyme = target: T3, HDAC9 enzyme (Homo sapiens, UniProt Q9UKV0); experiment: HDAC9 Enzyme Inhibitory Assay (HDAC-Glo class IIa); conditions: 1 μM test compound; wells without enzyme = 100% inhibition; read-out: HDAC9 inhibitory rate (%) (1 μM)
T3 construct: transducing full length HDAC9 gene into Sf-9 insect cells; made in house; host or cells: Sf-9 insect cells
T3 sequence (Q9UKV0 whole entry, species assumed): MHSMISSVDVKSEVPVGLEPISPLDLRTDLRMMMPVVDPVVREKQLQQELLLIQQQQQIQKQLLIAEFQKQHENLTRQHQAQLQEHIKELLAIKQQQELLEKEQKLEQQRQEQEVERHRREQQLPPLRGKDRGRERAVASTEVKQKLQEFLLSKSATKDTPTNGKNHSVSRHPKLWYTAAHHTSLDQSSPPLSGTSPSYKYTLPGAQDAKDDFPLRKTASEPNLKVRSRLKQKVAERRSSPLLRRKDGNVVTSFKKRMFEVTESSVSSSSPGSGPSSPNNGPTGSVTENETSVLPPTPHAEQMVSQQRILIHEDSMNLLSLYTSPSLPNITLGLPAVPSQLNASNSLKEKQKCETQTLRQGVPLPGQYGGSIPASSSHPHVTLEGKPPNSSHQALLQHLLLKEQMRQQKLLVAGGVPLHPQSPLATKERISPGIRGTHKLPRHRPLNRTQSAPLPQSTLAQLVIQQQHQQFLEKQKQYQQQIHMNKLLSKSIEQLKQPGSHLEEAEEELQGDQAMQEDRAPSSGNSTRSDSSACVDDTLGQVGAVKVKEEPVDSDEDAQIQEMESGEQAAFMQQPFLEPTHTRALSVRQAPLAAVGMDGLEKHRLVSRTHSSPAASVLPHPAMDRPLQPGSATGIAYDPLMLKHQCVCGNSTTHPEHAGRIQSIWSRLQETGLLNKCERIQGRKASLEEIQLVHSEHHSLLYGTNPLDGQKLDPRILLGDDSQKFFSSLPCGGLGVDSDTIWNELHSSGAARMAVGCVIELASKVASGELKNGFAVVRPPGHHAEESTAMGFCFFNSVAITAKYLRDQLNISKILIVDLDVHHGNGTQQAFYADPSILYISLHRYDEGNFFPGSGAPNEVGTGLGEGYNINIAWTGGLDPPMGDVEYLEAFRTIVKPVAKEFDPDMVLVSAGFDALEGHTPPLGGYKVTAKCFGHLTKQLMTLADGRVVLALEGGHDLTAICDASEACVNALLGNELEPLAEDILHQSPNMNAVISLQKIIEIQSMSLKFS
Method in brief: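 Luminescent HDAC-Glo class IIa readout after a 20 min room-temperature reaction; relative inhibition referenced to enzyme-free wells as 100%. Test compound first preincubated 60 min with Sf-9-expressed, Ni-NTA-purified full-length HDAC9 in pH 7.5 Tris buffer containing 135 mM NaCl, 0.6 mM glutathione and 0.01% Tween-20.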

## O=C(N[C@H]1CCCC[C@H]1N1Cc2ccc(-c3noc(C(F)(F)F)n3)cc2C1=O)C1CC1 [Example 86, N-((1S,2R)-2-(1-oxo-6-(5-(trifluoromethyl)-1,2,4-oxadiazol-3-yl)-1,3-dihydro-2H-isoindol-2-yl)cyclohexyl) cyclopropanecarboxamide]
HDAC6 enzyme
  inhibition at 1 µM: 98%
HDAC1 enzyme
  inhibition at 1 µM: 80%
HDAC9 enzyme
  inhibition at 1 µM: 92%

## CC1(C(=O)N[C@@H]2CCC(F)(F)C[C@H]2N2Cc3ccc(-c4noc(C(F)(F)F)n4)cc3C2=O)COC1 [Example 87, N-((1R,2R)-4,4-difluoro-2-(1-oxo-6-(5-(trifluoromethyl)-1,2,4-oxadiazol-3-yl)-1,3-dihydro-2H-isoindol-2-yl)cyclohexyl)-3-methyloxetane-3-carboxamide]
HDAC6 enzyme
  inhibition at 1 µM: 99%
HDAC1 enzyme
  inhibition at 1 µM: 1%
HDAC9 enzyme
  inhibition at 1 µM: 45%

## CC(C)(C)OC(=O)N1CC[C@@H](N2Cc3ncc(-c4noc(C(F)(F)F)n4)cc3C2=O)[C@H](c2ccccc2)C1 [Example 88, tert-butyl (3R,4R)-4-(5-oxo-3-(5-(trifluoromethyl)-1,2,4-oxadiazol-3-yl)-5,7-dihydro-6H-pyrrolo[3,4-b]pyridin-6-yl)-3-phenylpiperidine-1-carboxylate]
HDAC6 enzyme
  inhibition at 1 µM: 98%
HDAC1 enzyme
  inhibition at 1 µM: 79%
HDAC9 enzyme
  inhibition at 1 µM: 97%

## O=C1c2cc(-c3noc(C(F)(F)F)n3)ccc2CN1[C@@H]1CCCC[C@H]1NS(=O)(=O)C1CC1 [Example 89, N-((1R,2R)-2-(1-oxo-6-(5-(trifluoromethyl)-1,2,4-oxadiazol-3-yl)-1,3-dihydro-2H-isoindol-2-yl)cyclohexyl) cyclopropanesulfonamide]
HDAC6 enzyme
  inhibition at 1 µM: 98%
HDAC1 enzyme
  inhibition at 1 µM: 37%
HDAC9 enzyme
  inhibition at 1 µM: 85%

## O=C(CC1(O)CCCC1)N[C@@H]1CCCC[C@H]1N1Cc2ccc(-c3noc(C(F)(F)F)n3)cc2C1=O [Example 91, 2-(1-hydroxycyclopentyl)-N-((1R,2R)-2-(1-oxo-6-(5-(trifluoromethyl)-1,2,4-oxadiazol-3-yl)-1,3-dihydro-2H-isoindol-2-yl)cyclohexyl)acetamide]
HDAC6 enzyme
  inhibition at 1 µM: 99%
HDAC1 enzyme
  inhibition at 1 µM: 11%
HDAC9 enzyme
  inhibition at 1 µM: 44%

## O=C1CC[C@H](C(=O)N[C@@H]2CCCC[C@H]2N2Cc3ccc(-c4noc(C(F)(F)F)n4)cc3C2=O)N1 [Example 92, 5-oxo-N-((1R,2R)-2-(1-oxo-6-(5-(trifluoromethyl)-1,2,4-oxadiazol-3-yl)-1,3-dihydro-2H-isoindol-2-yl)cyclohexyl)-D-prolinamide]
HDAC6 enzyme
  inhibition at 1 µM: 96%
HDAC1 enzyme
  inhibition at 1 µM: 0%
HDAC9 enzyme
  inhibition at 1 µM: 23%

## O=C1C[C@@H](C(=O)N[C@@H]2CCCC[C@H]2N2Cc3ccc(-c4noc(C(F)(F)F)n4)cc3C2=O)N1 [Example 93, (2S)-4-oxo-N-((1R,2R)-2-(1-oxo-6-(5-(trifluoromethyl)-1,2,4-oxadiazol-3-yl)-1,3-dihydro-2H-isoindol-2-yl)cyclohexyl)azetidine-2-carboxamide]
HDAC6 enzyme
  inhibition at 1 µM: 95%
HDAC1 enzyme
  inhibition at 1 µM: 2%
HDAC9 enzyme
  inhibition at 1 µM: 42%

## CN1CCC[C@@H]1C(=O)N[C@@H]1CCCC[C@H]1N1Cc2ccc(-c3noc(C(F)(F)F)n3)cc2C1=O [Example 94, 1-methyl-N-((1R,2R)-2-(1-oxo-6-(5-(trifluoromethyl)-1,2,4-oxadiazol-3-yl)-1,3-dihydro-2H-isoindol-2-yl)cyclohexyl)-D-prolinamide]
HDAC6 enzyme
  inhibition at 1 µM: 99%
HDAC1 enzyme
  inhibition at 1 µM: 5%
HDAC9 enzyme
  inhibition at 1 µM: 24%

## CC(C)(O)C(=O)N[C@@H]1CCCC[C@H]1N1Cc2ccc(-c3noc(C(F)(F)F)n3)cc2C1=O [Example 95, 2-hydroxy-2-methyl-N-((1R,2R)-2-(1-oxo-6-(5-(trifluoromethyl)-1,2,4-oxadiazol-3-yl)-1,3-dihydro-2H-isoindol-2-yl)cyclohexyl)propanamide]
HDAC6 enzyme
  inhibition at 1 µM: 100%
HDAC1 enzyme
  inhibition at 1 µM: 3%
HDAC9 enzyme
  inhibition at 1 µM: 37%

## CC(C)(O)CC(=O)N[C@@H]1CCCC[C@H]1N1Cc2ccc(-c3noc(C(F)(F)F)n3)cc2C1=O [Example 96, 3-hydroxy-3-methyl-N-((1R,2R)-2-(1-oxo-6-(5-(trifluoromethyl)-1,2,4-oxadiazol-3-yl)-1,3-dihydro-2H-isoindol-2-yl)cyclohexyl)butanamide]
HDAC6 enzyme
  inhibition at 1 µM: 101%
HDAC1 enzyme
  inhibition at 1 µM: 10%
HDAC9 enzyme
  inhibition at 1 µM: 50%

## O=C(N[C@@H]1CCCC[C@H]1N1Cc2ccc(-c3noc(C(F)(F)F)n3)cc2C1=O)C1CCC1 [Example 97, N-((1R,2R)-2-(1-oxo-6-(5-(trifluoromethyl)-1,2,4-oxadiazol-3-yl)-1,3-dihydro-2H-isoindol-2-yl)cyclohexyl) cyclobutanecarboxamide]
HDAC6 enzyme
  inhibition at 1 µM: 99%
HDAC1 enzyme
  inhibition at 1 µM: 14%
HDAC9 enzyme
  inhibition at 1 µM: 59%

## O=C(N[C@@H]1CCCC[C@H]1N1Cc2ccc(-c3noc(C(F)(F)F)n3)cc2C1=O)C1C[C@@H]1F (stereo partly drawn) [Example 98, 2-fluoro-N-((1R,2R)-2-(1-oxo-6-(5-(trifluoromethyl)-1,2,4-oxadiazol-3-yl)-1,3-dihydro-2H-isoindol-2-yl)cyclohexyl) cyclopropanecarboxamide]
HDAC6 enzyme
  inhibition at 1 µM: 99%
HDAC1 enzyme
  inhibition at 1 µM: 4%
HDAC9 enzyme
  inhibition at 1 µM: 55%

## CC1(C)C(C(=O)N[C@@H]2CCCC[C@H]2N2Cc3ccc(-c4noc(C(F)(F)F)n4)cc3C2=O)C1(C)C [Example 99, 2,2,3,3-tetramethyl-N-((1R,2R)-2-(1-oxo-6-(5-(trifluoromethyl)-1,2,4-oxadiazol-3-yl)-1,3-dihydro-2H-isoindol-2-yl)cyclohexyl) cyclopropanecarboxamide]
HDAC6 enzyme
  inhibition at 1 µM: 100%
HDAC1 enzyme
  inhibition at 1 µM: 13%
HDAC9 enzyme
  inhibition at 1 µM: 51%

## CC(C)(C#N)C(=O)N[C@@H]1CCCC[C@H]1N1Cc2ccc(-c3noc(C(F)(F)F)n3)cc2C1=O [Example 100, 2-cyano-2-methyl-N-((1R,2R)-2-(1-oxo-6-(5-(trifluoromethyl)-1,2,4-oxadiazol-3-yl)-1,3-dihydro-2H-isoindol-2-yl)cyclohexyl)propanamide]
HDAC6 enzyme
  inhibition at 1 µM: 100%
HDAC1 enzyme
  inhibition at 1 µM: 9%
HDAC9 enzyme
  inhibition at 1 µM: 73%

## Cn1cnc(C(=O)N[C@@H]2CCCC[C@H]2N2Cc3ccc(-c4noc(C(F)(F)F)n4)cc3C2=O)c1 [Example 101, 1-methyl-N-((1R,2R)-2-(1-oxo-6-(5-(trifluoromethyl)-1,2,4-oxadiazol-3-yl)-1,3-dihydro-2H-isoindol-2-yl)cyclohexyl)-1H-imidazole-4-carboxamide]
HDAC6 enzyme
  inhibition at 1 µM: 98%
HDAC1 enzyme
  inhibition at 1 µM: 12%
HDAC9 enzyme
  inhibition at 1 µM: 68%

## CC1CC1C(=O)N[C@@H]1CCCC[C@H]1N1Cc2ccc(-c3noc(C(F)(F)F)n3)cc2C1=O (stereo partly drawn) [Example 102, 2-methyl-N-((1R,2R)-2-(1-oxo-6-(5-(trifluoromethyl)-1,2,4-oxadiazo-3-yl)-1,3-dihydro-2H-isoindol-2-yl)cyclohexyl) cyclopropanecarboxamide]
HDAC6 enzyme
  inhibition at 1 µM: 99%
HDAC1 enzyme
  inhibition at 1 µM: 7%
HDAC9 enzyme
  inhibition at 1 µM: 52%

## O=C(N[C@@H]1CCCC[C@H]1N1Cc2ccc(-c3noc(C(F)(F)F)n3)cc2C1=O)c1cocn1 [Example 103, N-((1R,2R)-2-(1-oxo-6-(5-(trifluoromethyl)-1,2,4-oxadiazol-3-yl)-1,3-dihydro-2H-isoindol-2-yl)cyclohexyl)-1,3-oxazole-4-carboxamide]
HDAC6 enzyme
  inhibition at 1 µM: 102%
HDAC1 enzyme
  inhibition at 1 µM: 14%
HDAC9 enzyme
  inhibition at 1 µM: 55%

From patent US10308643B2, “Heterocyclic compound” (Takeda Pharmaceutical Company Limited, priority 2015, dated 2019)
